Data published in patent US8691529B2, “Increasing protein production by increasing ABC50 expression or activity” (University Health Network, priority 2009, dated 2014).

Assays:
E2R2 cells = assay: Apoptosis induction by Ec, AnnexinV/PI flow cytometry, E2R2 cells; type: cell-based, Human; settings: 15 μM Ec for 2 hours, overnight recovery
Method: FIG. 2 ABC50 knockdown partially reverses resistance to Ec in E2R2 cells. A: Western blot of ABC50 expression in E2R2 cells infected with vector control or ABC50 shRNA. B: Apoptosis induction by Ec in E2R2 vector control and ABC50 knockdown cells. Cells were exposed to 15 μM Ec for 2 hours followed by overnight recovery as described in Materials and Methods. The following day, cells were stained with PI and AnnexinV and analysed by flow cytometry. AnnexinV positive, PI negative cells represent early apoptotic cells, AnnexinV positive, PI positive cells represent late apoptotic or necrotic cells.
(§1) To measure apoptosis induced by Econazole (Ec; Sigma-Aldrich, St. Louis, Mo.), cells were treated with Ec in RPMI containing 1% FBS for 2 hours at 37° C. then further incubated overnight in RPMI containing 10% FBS. Apoptosis induced by thapsigargin (Tg; Sigma-Aldrich) or Tunicamycin (Tu; Sigma-Aldrich) was determined after overnight incubation in RPMI containing 1% FBS. The cells were washed with PBS and stained with Annexin V-cy5 Apoptosis Detection kit (Biovision. Inc., Mountain View, Calif.)/PI and analysed by flow cytometry.

HL60 cells [1] = assay: Apoptosis induction by ER stress agents and etoposide, AnnexinV/PI flow cytometry, HL60 cells; type: cell-based, Human; settings: 15 μM Ec 2 hours, 200 nM Tg, 1 μM Tu or 5 μM etoposide overnight; for sensitivity to apoptosis induction, ABC50 knockdown vs vector control: HL60 ABC50 knockdown cells; for sensitivity to apoptosis induction, ABC50 overexpressing vs control cells: HL60 ABC50 overexpressing cells
Method: FIG. 3 ABC50 knockdown alters growth rate and sensitivity to Ec in HL60 cells. A: Western blot of ABC50 expression in HL60 cells infected with vector control or ABC50 shRNA. B: Cell growth kinetics of control and ABC50 knocked-down cells. Values are means and standard errors determined from triplicate cultures and is representative measurement from a series of three independent experiments. ***indicates p<0.001 at 48 hours for ABC50 KD cells vs control. C: Apoptosis induction by serum withdrawal (SW), Ec, Tg, Tu and etoposide (Eto) in HL60 vector control and ABC50 knockdown cells. Cells were exposed to 15 μM Ec for 2 hours followed by overnight recovery as described in Materials and Methods. Cells were incubated overnight in the absence of serum, 200 nM Tg, 1 μM Tu or 5 μM etoposide. The following day, cells were stained with PI and AnnexinV and analysed by flow cytometry. AnnexinV positive, PI negative cells represent early apoptotic cells, AnnexinV positive, PI positive cells represent late apoptotic or necrotic cells. Plotted is early and late apoptotic cells combined. *p<0.05, **p<0.01 comparing knockdown or overexpressing cells to their vector control.
FIG. 4 Effect of ABC50 overexpression on growth rate and sensitivity to ER stress agents in HL60 cells. A: Western blot of ABC50 expression in HL60 cells infected with vector control or ABC50 OE vector. B: Cell growth kinetics of control and ABC50 overexpressing cells. Values are means and standard errors determined from triplicate cultures and is representative measurement from a series of three independent experiments. C: Apoptosis induction by serum withdrawal (SW), Ec, Tg, Tu and etoposide (Eto) in HL60 vector control and ABC50 overexpressing cells. Cells were exposed to 15 μM Ec for 2 hours followed by overnight recovery as described in Materials and Methods. Cells were incubated overnight in the absence of serum, 200 nM Tg, 1 μM Tu or 5 μM etoposide. The following day, cells were stained with PI and AnnexinV and analysed by flow cytometry. AnnexinV positive, PI negative cells represent early apoptotic cells, AnnexinV positive, PI positive cells represent late apoptotic or necrotic cells. Plotted is early and late apoptotic cells combined. *p<0.05, **p<0.01 comparing knockdown or overexpressing cells to their vector control.
as §1

HL60 cells [2] = assay: Global protein synthesis, 3H-leucine incorporation; type: cell-based, Human; settings: 15 μM Ec for 15 minutes
Method: FIG. 8 Effect of ABC50 knockdown or overexpression on global protein synthesis. Cells were incubated with 15 μM Ec for 15 minutes, pulse-labelled with 3H-leucine and incorporation was measured as described in Materials and Methods. A: Vector control vs ABC50 knock-down. B: Vector control vs ABC50 overexpression. The values are averages and standard errors from 4 replicates. This experiment was repeated six times. *p<0.05, **p<0.01 comparing knockdown or overexpressing cells to their vector control.
Cells (2×10^5/sample) were collected, washed with PBS and then re-suspended in RPMI supplemented with fatty acid-free bovine serum albumin (BSA; 0.05%; Sigma). Cells were treated with Ec (0, 15 μM) for 15 min. After centrifugation (2,500 rpm; 5 min), cells were pulse-labeled with [^3H]-leucine (50 μCi/ml) for 10 min (37° C.; 5% CO2) in leucine-free RPMI. After two washes in RPMI, pellets were lysed with Triton X-100 (0.5% in PBS) followed by trichloroacetic acid (TCA, 10% w/v; 4° C.). Samples were washed in TCA (5% w/v), and the protein pellets were re-suspended in microscintillant (Packard, Conn., USA) and measured using a microplate scintillation counter (Packard).

[3] = tested on: ser51-phosphorylated eIF2α; assay: ER stress response, Western blot of ser51-phosphorylated eIF2α; type: cell-based, Human; settings: Ec 15 μM, Tg 200 nM, 60 minutes; for induction of increased levels of phosphorylated eIF2α: ABC50 knockdown cells vs vector control; for levels of phosphorylated eIF2α: ABC50 overexpressing cells, Tu 200 ng/ml
Method: FIG. 6. ABC50 knockdown or overexpression alters the ER stress response. Vector controls, knockdown (A, B) or overexpressing cells (C, D) were exposed to Ec (15 μM), Tg (200 nM) or Tu (200 ng/ml) for 60 minutes. The cells were collected, lysed in RIPA buffer, resolved by SDS-PAGE and analysed with anti-sera specific for A, C: ser51-phosphorylated eIF2α or total eIF2α, B, D: BiP or actin. Numbers represent relative expression levels compared to control normalized to either total eIF2α or actin. The blots are representative of two independent experiments.
Cells were washed with PBS and lysed with Triple lysis buffer (50 mM Tris pH7.0, 150 mM NaCl, 0.1% SDS, 1% NP-40 and 0.5% DOC). Proteinase inhibitor (Boehringer) was added to 10 ml lysis buffer before use. Protein concentration was determined with the Pierce BCA kit. 20 μg of total protein was loaded onto 10% SDS-PAGE, transferred onto filters and blotted with rabbit anti-human ABC50 polyclonal serum (kind gift from Dr. C. Proud, Vancouver, Canada). eIF2α and its phosphorylated form (Ser51) were detected with rabbit polyclonal antibodies from Cell Signalling (Danvers, Mass.). Mouse anti-BiP/GRP78 antibodies were obtained from BD Biosciences (San Jose, Calif.) Anti-actin (pan Ab-5, Clone ACTN05) (Labvision/Neomarker, Fremont, Calif.) was used as a loading control.

sp2 cells = assay: Cell viability of Ec-selected sp2 cells, Trypan Blue staining; type: cell-based, mouse; settings: exposure overnight
Method: FIG. 10. Generation of Ec-resistant sp2 cells. Sp2 cells were exposed to increasing concentrations of Econazole. Cells remaining after treatment were expanded and subjected to additional rounds of selection. A: cell viability for unselected (U) and selected (S) cells. Exposure to Econazole was for 2 hours in low serum medium, followed by a recovery period of 24 hours in full growth medium. Cells were exposed to Thapsigargin (Tg) and Tunicamycin (Tu) overnight. Cell viability was determined by Trypan Blue staining of 200 cells. B: Western blot of ABC50 expression in sp2 cells selected for resistance to Ec showing increased expression. C: Quantitation of expression normalized to actin. **p<0.01, ***p<0.001 comparing selected vs unselected.

Row | Compound | combined early and late apoptosis (E2R2 cells; E2R2 ABC50 knockdown cells) | combined early and late apoptosis (E2R2 cells; E2R2 vector control cells) | sensitivity to apoptosis induction, ABC50 knockdown vs vector control (HL60 cells [1]) | sensitivity to apoptosis induction, ABC50 overexpressing vs control cells (HL60 cells [1]) | protein synthesis rates after exposure (HL60 cells [2]; ABC50 knock down cells) | protein synthesis level after exposure, compared to control cells (HL60 cells [2]; ABC50 overexpressing cells) | protein synthesis levels after exposure (HL60 cells [2]; vector control cells) | induction of increased levels of phosphorylated eIF2α [3] | levels of phosphorylated eIF2α [3] | resistance of Ec-resistant sp2 cells (cell viability, selected vs unselected) (sp2 cells)
1 | Clc1ccc(COC(Cn2ccnc2)c2ccc(Cl)cc2Cl)cc1 (centres unmarked) [Ec, 1-[2-[(4-chlorophenyl)methoxy]-2-(2,4-dichlorophenyl)ethyl]-1H-imidazole] | 21.4% | 7.6% | significantly increased the sensitivity | decreased sensitivity | reduced protein synthesis rates even further | significantly less reduced | significant decrease | particularly effective | reduced levels | 
2 | C/C=C(/C)C(=O)O[C@H]1C(C)=C2[C@H]([C@@H]1OC(=O)CCCCCCC)[C@@](C)(OC(C)=O)C[C@H](OC(=O)CCC)[C@@]1(O)[C@H]2OC(=O)[C@@]1(C)O [Tg, thapsigargin] |  |  | significantly increased the sensitivity | decreased sensitivity |  |  |  | particularly effective | reduced levels | relatively resistant
3 | COc1cc([C@@H]2c3cc4c(cc3[C@@H](O[C@@H]3O[C@@H]5CO[C@@H](C)O[C@H]5[C@H](O)[C@H]3O)[C@H]3COC(=O)[C@H]23)OCO4)cc(OC)c1O [etoposide] |  |  | did not affect sensitivity | unchanged |  |  |  |  |  | 
4 | Tunicamycin |  |  | significantly increased the sensitivity | decreased sensitivity |  |  |  |  | reduced levels | relatively resistant
